This is an account of results in patent publication US20090043129A1 (priority 2005, published 2009).

Like-named read-outs stand apart in the source and are kept apart here. Some results are limits rather than exact numbers.

Series [1] has as its target human recombinant CB1 receptor (Homo sapiens, UniProt P21554). Type of series: binding. The arrangement: purchased Perkin-Elmer; host or cells: COS cells.
For another series, the target named is T1, CB2 (Rattus norvegicus, UniProt Q9QZN9).
T1 construct: from tissue; host or cells: rat spleen membranes
T1 sequence (Q9QZN9 1-360): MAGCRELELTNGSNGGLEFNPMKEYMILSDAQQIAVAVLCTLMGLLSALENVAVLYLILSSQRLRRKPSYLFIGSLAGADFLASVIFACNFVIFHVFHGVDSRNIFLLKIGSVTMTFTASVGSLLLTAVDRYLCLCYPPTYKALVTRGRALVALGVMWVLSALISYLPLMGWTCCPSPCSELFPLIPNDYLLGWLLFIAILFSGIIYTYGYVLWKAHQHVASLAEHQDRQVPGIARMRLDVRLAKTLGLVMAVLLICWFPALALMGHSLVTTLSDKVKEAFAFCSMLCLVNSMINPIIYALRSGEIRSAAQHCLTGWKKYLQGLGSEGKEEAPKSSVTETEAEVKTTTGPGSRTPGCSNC
The series can be described thus: Preliminary selection with rat spleen membranes. Type of series: binding. Conditions: rat brain and spleen membranes, read-out: CB2 (n.a. class, IC50 in preliminary selection).

The target of series [2] is human recombinant CB2 receptor (Homo sapiens, UniProt P34972). Nature of the series: CB2 binding, [3H]CP55,940 displacement, membranes from transfected COS cells. Further details: purchased Perkin-Elmer; host or cells: COS cells. Conditions: for Ki: recombinant human CB2, COS cell membranes.
The target of series [3] is T2, Fatty Acid Amide Hydrolase (FAAH) (Rattus norvegicus, UniProt P97612).
T2 sequence (P97612 1-579): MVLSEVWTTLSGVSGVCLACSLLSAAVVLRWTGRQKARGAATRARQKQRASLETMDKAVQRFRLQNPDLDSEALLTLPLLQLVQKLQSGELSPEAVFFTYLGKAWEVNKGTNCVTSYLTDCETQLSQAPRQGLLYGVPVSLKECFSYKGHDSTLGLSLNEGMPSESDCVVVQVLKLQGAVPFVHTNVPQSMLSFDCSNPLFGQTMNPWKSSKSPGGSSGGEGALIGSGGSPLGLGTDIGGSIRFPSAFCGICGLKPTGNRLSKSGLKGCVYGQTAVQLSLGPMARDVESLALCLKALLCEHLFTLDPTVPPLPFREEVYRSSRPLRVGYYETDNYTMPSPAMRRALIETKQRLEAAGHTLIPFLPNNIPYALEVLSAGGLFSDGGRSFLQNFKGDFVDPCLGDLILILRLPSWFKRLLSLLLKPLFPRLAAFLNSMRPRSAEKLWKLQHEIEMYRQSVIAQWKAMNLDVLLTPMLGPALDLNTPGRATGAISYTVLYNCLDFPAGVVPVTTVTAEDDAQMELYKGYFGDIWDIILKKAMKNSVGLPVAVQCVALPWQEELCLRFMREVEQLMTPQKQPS
The series can be described thus: biochemical. The procedure: Assay for Fatty Acid Amide Hydrolase (FAAH)
The effect of compounds on the enzymatic hydrolysis of [^14C]anandamide (6 μM) was studied using membranes prepared from rat brain incubated with increasing concentrations of compounds in 50 mM Tris-HCl, pH 9, for 30 minutes at 37° C. (Di Marzo et al., 2002). [^14C]ethanolamine produced from [^14C]anandamide hydrolysis was measured counting the scintillation of the aqueous phase after extraction of the incubation mixture with 2 volumes of CHCl3/CH3OH (2:1 by volume). […]

Series [4] concerns Anandamide Membrane Transporter (AMT). Nature of the series: Anandamide uptake by RBL-2H3 cells. Type of series: cell-based. To be noted: anandamide uptake, read-out: AMT IC50. The procedure: Assay for the Anandamide Membrane Transporter (AMT)
The effect of the compounds on the uptake of anandamide by the RBL-2H3 cells was studied as described (Di Marzo et al., 2002). Cells were incubated with [^14C]anandamide (4 μM) for 5 minutes at 37° C., in the presence or absence of varying concentrations of the inhibitors. Residual [^14C]anandamide in the incubation media after extraction with CHCl3/CH3OH (2:1 by volume) was used as a measure of the anandamide that was taken up by cells. Data are expressed as the concentration that produces 50% of inhibition of anandamide uptake (IC50) calculated with GraphPad.

[5] abbreviates: recombinant human CB1, COS cell membranes.
The mark [6] stands for this setting: rat brain membranes, read-out: FAAH (n.a. class).

Sequence of human recombinant CB2 receptor (P34972 whole entry): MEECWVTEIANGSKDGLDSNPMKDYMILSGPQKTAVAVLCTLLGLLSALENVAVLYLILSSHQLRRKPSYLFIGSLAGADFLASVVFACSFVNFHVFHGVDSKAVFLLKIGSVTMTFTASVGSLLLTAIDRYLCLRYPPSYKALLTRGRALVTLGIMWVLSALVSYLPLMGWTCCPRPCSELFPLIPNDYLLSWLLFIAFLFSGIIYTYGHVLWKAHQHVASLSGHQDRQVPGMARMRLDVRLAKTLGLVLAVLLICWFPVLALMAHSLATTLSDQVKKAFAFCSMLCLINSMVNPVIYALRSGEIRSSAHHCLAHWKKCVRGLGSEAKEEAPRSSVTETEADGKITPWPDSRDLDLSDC
Sequence of human recombinant CB1 receptor (P21554 whole entry): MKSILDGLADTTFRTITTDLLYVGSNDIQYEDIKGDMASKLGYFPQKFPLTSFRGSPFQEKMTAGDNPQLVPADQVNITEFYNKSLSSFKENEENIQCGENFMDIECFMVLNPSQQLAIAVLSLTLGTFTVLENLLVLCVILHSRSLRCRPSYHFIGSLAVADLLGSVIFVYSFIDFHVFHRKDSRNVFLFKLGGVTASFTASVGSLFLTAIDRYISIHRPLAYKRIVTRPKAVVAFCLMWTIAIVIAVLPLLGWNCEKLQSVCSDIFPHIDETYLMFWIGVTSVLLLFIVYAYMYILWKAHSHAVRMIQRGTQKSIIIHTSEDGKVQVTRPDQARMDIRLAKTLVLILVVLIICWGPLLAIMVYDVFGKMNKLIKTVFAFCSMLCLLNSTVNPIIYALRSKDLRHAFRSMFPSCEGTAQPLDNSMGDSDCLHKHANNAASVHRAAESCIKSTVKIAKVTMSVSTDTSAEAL

Compound `CCCCCc1cc(O)cc(OCCCCCCCCCCCCCCCC(=O)NCCO)c1` [Compound 27, 16-(3-Hydroxy-5-pentyl-phenoxy)-hexadecanoic acid (2-hydroxy-ethyl)-amide] returned a melting point of 84 to 85 °C. Further, the inhibition constant (Ki) in series [1] (setting [5]) was 12.5 µM. The IC50 on CB2 is greater than 10 µM.

In the case of `CCCCCCCCCCCCCCCc1cccc(OCCCCCCCCCCC(=O)NC2CC2)c1` [Compound 19, 11-(3-Pentadecyl-phenoxy)-undecanoic acid cyclopropylamide], the melting point was determined as 82 °C.

On to `O=C(CCCCCCCCCCOc1cccc(O)c1)NC1CC1` [Compound 34, 11-(3-Hydroxy-phenoxy)-undecanoic acid cyclopropilamide], for which the Ki in series [2] is 5.4 µM. Also, the IC50 in series [3] is greater than 10 µM.

With `CCCCCCCCCCCCCCCc1cccc(OCCCCCCCCCCC(=O)NCCO)c1` [Compound 18, 11-(3-Pentadecyl-phenoxy)-undecanoic acid (2-hydroxy-ethyl)-amide], the melting point was 83 to 85 °C.

Regarding `CCCCCc1cc(O)cc(OCCCCCC(=O)NC2CC2)c1` [Compound 22, 6-(3-Hydroxy-5-pentyl-phenoxy)-hexanoic acid cyclopropylamide], the Ki in series [2] turned out to be 0.96 µM. In addition, the IC50 in series [3] is greater than 10 µM.

As for `O=C(CCCCCOc1cccc(O)c1)NC1CC1` [Compound 31, 6-(3-Hydroxy-phenoxy)-hexanoic acid cyclopropylamide], the IC50 in series [3] was greater than 10 µM.

For `O=C(CCCCCCCCCCCCCCCOc1cccc(O)c1)NC1CC1` [Compound 37, 16-(3-Hydroxy-phenoxy)-hexadecanoic acid cyclopropylamide], the melting point turned out to be 105.6 °C. Also, in series [1] (setting [5]), the Ki is 4.25 µM. Besides, the IC50 at CB2 was greater than 10 µM.

Consider `CCCCCCc1ccc(O)cc1OCCCCCC(=O)NCCO` [Compound 48, 6-(2-Hexyl-5-hydroxy-phenoxy)-hexanoic acid (2-hydroxy-ethyl)-amide], for which, in series [3] (setting [6]), the IC50 is greater than 10 µM.

Compound `CCCCCCc1ccc(O)cc1OCCCCCC(=O)Nc1ccc(O)cc1` returned a melting point of 106 °C.

`CCCCCc1cc(O)cc(OCCCCCC(=O)Nc2ccc(O)cc2)c1` [Compound 23, 6-(3-Hydroxy-5-pentyl-phenoxy)-hexanoic acid (4-hydroxy-phenyl)amide] registered a melting point of 69.2 °C. Moreover, the IC50 in series [3] is greater than 10 µM.

With `O=C(CCCCCOc1cccc(O)c1)NCCO` [Compound 30, 6-(3-Hydroxy-phenoxy)-hexanoic acid (2-hydroxy-ethyl)-amide], the IC50 in series [3] was greater than 10 µM.

The compound `CCCCCCCCCCCCCCCc1cccc(OCCCCCC(=O)NC2CC2)c1` [Compound 16, 6-(3-Pentadecyl-phenoxy)-hexanoic acid cyclopropylamide] returned a melting point of 67.8 °C. The same compound yielded an IC50 in series [3] greater than 10 µM.

For `CCCCCc1cc(O)cc(OCCCCCCCCCCCCCCCC(=O)Nc2ccc(O)cc2)c1` [Compound 29, 16-(3-Hydroxy-5-pentyl-phenoxy)-hexadecanoic acid (4-hydroxy-phenyl)-amide], the melting point was determined as 89.5 °C. For the same compound, on CB2, the IC50 was greater than 10 µM.

As for `CCCCCCc1ccc(OCCCCCC(=O)NCCO)cc1O` [Compound 39, 6-(3-Hydroxy-4-hexyl-phenoxy)-hexanoic acid (2-hydroxy-ethyl)-amide], the melting point came out at 71.2 °C. Further, in series [2], the Ki came out at 6.43 µM. The same compound returned an IC50 in series [3] greater than 10 µM.

For the compound `O=C(CCCCCCCCCCOc1cccc(O)c1)NCCO` [Compound 33, 11-(3-Hydroxy-phenoxy)-undecanoic acid (2-hydroxy-ethyl)-amide], the melting point was 72.1 °C. Besides, the IC50 on CB2 was greater than 10 µM. In series [3], the IC50 is greater than 10 µM.

With `CCCCCCc1ccc(OCCCCCCCCCCC(=O)NC2CC2)cc1O` [Compound 43, 11-(3-Hydroxy-4-hexyl-phenoxy)-undecanoic acid cyclopropylamide], the IC50 was greater than 25 µM in series [4] and greater than 10 µM in series [3]. In addition, the “selectivity for CB2 with respect to the CB1 receptors” value in series [2] (CB1 Ki / CB2 Ki) is recorded as “at least 26 times”. In addition, the Ki in series [2] was 0.35 µM.

As for `CCCCCCc1ccc(OCCCCCC(=O)Nc2ccc(O)cc2)cc1O`, the melting point amounted to 128.4 °C.

As for `CCCCCc1cc(O)cc(OCCCCCC(=O)NCCO)c1` [Compound 21, 6-(3-Hydroxy-5-pentyl-phenoxy)-hexanoic acid (2-hydroxy-ethyl)-amide], the IC50 (at CB2; in series [3]) was greater than 10 µM throughout.

`CCCCCCCCCCCCCCCc1cccc(OCCCCCC(=O)Nc2ccc(O)cc2)c1` [Compound 17, 6-(3-Pentadecyl-phenoxy)-hexanoic acid (4-hydroxy-phenyl)-amide] returned a melting point of 103.2 °C. For the same compound, the IC50 in series [4] is greater than 25 µM. For the same compound, the IC50 in series [3] (setting [6]) was greater than 10 µM.

`CCCCCCCCCCCCCCCc1cccc(OCCCCCCCCCCC(=O)Nc2ccc(O)cc2)c1` [Compound 20, 11-(3-Pentadecyl-phenoxy)-undecanoic acid (4-hydroxy-phenyl)-amide] returned a melting point of 107 °C.

The compound `O=C(CCCCCCCCCCCCCCCOc1cccc(O)c1)NCCO` [Compound 36, 16-(3-Hydroxy-phenoxy)-hexadecanoic acid (2-hydroxy-ethyl)-amide] showed a melting point of 94.5 °C. On CB2, the IC50 was greater than 10 µM.

Compound `CCCCCc1cc(O)cc(OCCCCCCCCCCCCCCCC(=O)NC2CC2)c1` [Compound 28, 16-(3-Hydroxy-5-pentyl-phenoxy)-hexadecanoic acid cyclopropylamide] came in with a melting point of 91 °C. Moreover, the IC50 on CB2 was greater than 10 µM.

On to `CCCCCCc1ccc(OCCCCCCCCCCCCCCCC(=O)Nc2ccc(O)cc2)cc1O` [Compound 47, 16-(3-Hydroxy-4-hexyl-phenoxy)-hexadecanoic acid (4-hydroxy-phenyl)-amide], for which the melting point came to 133.2 °C. Further, on CB2, the IC50 is greater than 10 µM.

As for `CCCCCCc1ccc(O)cc1OCCCCCCCCCCCCCCCC(=O)NC1CC1` [Compound 55, 16-(2-Hexyl-5-hydroxy-phenoxy)-hexadecanoic acid cyclopropylamide], the melting point was found to be 72.8 °C. The inhibition constant (Ki) in series [1] is 5.5 µM. Also, the Ki in series [2] amounted to 2.49 µM.

For `CCCCCCCCCCCCCCCc1cccc(OCCCCCC(=O)NCCO)c1` [Compound 15, 6-(3-Pentadecyl-phenoxy)-hexanoic acid (2-hydroxy-ethyl)-amide], the melting point was found to be 62.7 °C. The IC50 in series [4] was greater than 25 µM. In addition, in series [3] (setting [6]), the IC50 is greater than 10 µM.

Turning to `O=C(CCCCCCCCCCCCCCCOc1cccc(O)c1)Nc1ccc(O)cc1` [Compound 38, 16-(3-Hydroxy-phenoxy)-hexadecanoic acid (4-hydroxy-phenyl)-amide], the Ki in series [1] (setting [5]) is 5 µM.

The compound `CCCCCCc1ccc(O)cc1OCCCCCCCCCCCCCCCC(=O)Nc1ccc(O)cc1` [Compound 56, 16-(2-Hexyl-5-hydroxy-phenoxy)-hexadecanoic acid (4-hydroxy-phenyl)-amide] returned a melting point of 82.4 °C. Moreover, the Ki in series [1] (setting [5]) turned out to be 3 µM. Besides, at CB2, the IC50 is greater than 10 µM.

On to `CCCCCCc1ccc(O)cc1OCCCCCC(=O)NC1CC1` [Compound 49, 6-(2-Hexyl-5-hydroxy-phenoxy)-hexanoic acid cyclopropylamide], for which the Ki in series [2] is 3.57 µM. In series [3], this compound gave an IC50 greater than 10 µM.
